Measurements: patent US9193722B2, “Tri-cyclic pyrazolopyridine kinase inhibitors” (Vertex Pharmaceuticals Incorporated, priority 2008, dated 2015)

How the values were obtained:
Format in all cases: biochemical
PKC alpha kinase = PKC alpha kinase (Homo sapiens, UniProt P17252); test: PKC alpha kinase inhibition, coupled-enzyme (NADH absorbance) assay, Ki; conditions: 130 μM ATP, 4.5 nM PKC alpha kinase, 30° C.
Method in brief: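 Enzyme in 100 mM HEPES pH 7.5, 10 mM MgCl2, 100 μM CaCl2, 0.01% Brij, preincubated with compound 10 min at 30 °C. Reaction started with 130 μM ATP (final); NADH consumption followed at 340 nm for 15 min at 30 °C. Ki fitted by non-linear regression of initial rates.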

PKC delta kinase = PKC delta kinase (Homo sapiens, UniProt Q05655); test: PKC delta kinase inhibition, coupled-enzyme (NADH absorbance) assay, Ki; conditions: 150 μM ATP, 46 nM PKC delta kinase, 30° C.; read-out: Ki PKC delta
Method in brief: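 PKC delta in 100 mM HEPES pH 7.5, 10 mM MgCl2, 25 mM NaCl, 0.1 mM EDTA, 0.01% Brij, equilibrated 10 min at 30° C with compound from DMSO stock. Started with ATP at 150 μM final; NADH-coupled absorbance at 340 nm followed 15 min at 30° C. Ki from initial rates by non-linear regression.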

PKC theta kinase = PKC theta kinase (Homo sapiens, UniProt Q04759); test: PKC theta kinase inhibition, coupled-enzyme (NADH absorbance) assay, Ki; conditions: 240 μM ATP, 18 nM PKC theta kinase, 30° C.
Method in brief: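 Coupled-enzyme kinase assay following NADH absorbance at 340 nm, in 100 mM HEPES pH 7.5, 10 mM MgCl2, 25 mM NaCl, 0.1 mM EDTA, 0.01% Brij. Compound in DMSO preincubated with enzyme 10 min at 30 °C. Ki from initial rates by non-linear regression.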

PKC theta kinase, sequence (Q04759 whole entry): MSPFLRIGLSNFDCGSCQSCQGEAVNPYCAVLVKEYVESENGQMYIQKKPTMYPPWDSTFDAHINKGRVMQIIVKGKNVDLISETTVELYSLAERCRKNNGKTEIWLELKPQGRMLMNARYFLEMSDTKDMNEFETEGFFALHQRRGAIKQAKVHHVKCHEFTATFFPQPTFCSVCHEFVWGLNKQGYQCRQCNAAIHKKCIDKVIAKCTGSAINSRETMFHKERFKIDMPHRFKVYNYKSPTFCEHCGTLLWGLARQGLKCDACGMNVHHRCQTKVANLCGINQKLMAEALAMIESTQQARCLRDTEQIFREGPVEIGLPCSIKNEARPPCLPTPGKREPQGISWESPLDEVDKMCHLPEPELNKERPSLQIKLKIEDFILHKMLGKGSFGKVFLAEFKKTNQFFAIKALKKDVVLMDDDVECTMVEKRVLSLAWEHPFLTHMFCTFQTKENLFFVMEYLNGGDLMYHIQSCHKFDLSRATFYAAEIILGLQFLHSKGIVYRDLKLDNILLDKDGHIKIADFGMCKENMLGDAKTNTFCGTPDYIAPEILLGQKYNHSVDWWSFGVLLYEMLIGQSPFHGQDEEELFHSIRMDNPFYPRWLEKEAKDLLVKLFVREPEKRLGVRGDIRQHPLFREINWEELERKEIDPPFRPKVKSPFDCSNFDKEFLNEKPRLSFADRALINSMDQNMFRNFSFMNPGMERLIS
PKC delta kinase, sequence (Q05655 whole entry): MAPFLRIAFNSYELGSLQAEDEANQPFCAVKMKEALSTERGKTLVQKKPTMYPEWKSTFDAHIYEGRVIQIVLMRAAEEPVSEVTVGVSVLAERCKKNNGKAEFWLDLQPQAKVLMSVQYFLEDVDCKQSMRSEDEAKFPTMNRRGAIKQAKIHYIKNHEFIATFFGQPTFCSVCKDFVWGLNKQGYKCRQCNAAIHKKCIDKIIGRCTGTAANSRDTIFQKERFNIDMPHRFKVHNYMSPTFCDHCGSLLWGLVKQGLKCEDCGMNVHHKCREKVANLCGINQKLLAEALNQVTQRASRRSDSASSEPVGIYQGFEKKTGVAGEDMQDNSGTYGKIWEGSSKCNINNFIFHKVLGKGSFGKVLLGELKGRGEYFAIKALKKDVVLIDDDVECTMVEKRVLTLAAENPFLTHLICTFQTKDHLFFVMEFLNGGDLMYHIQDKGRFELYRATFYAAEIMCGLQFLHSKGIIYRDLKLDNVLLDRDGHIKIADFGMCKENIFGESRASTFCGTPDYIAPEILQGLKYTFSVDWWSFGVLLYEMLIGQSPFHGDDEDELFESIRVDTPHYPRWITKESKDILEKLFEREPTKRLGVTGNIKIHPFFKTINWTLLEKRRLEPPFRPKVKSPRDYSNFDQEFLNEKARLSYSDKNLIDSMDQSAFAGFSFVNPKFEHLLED

Structure (SMILES) | Ki (PKC alpha kinase) [µM] | Ki (PKC delta kinase) [µM] | Ki (PKC theta kinase) [µM]
Cc1cc(N2CCN[C@@H](CC(C)C)C2)nc(-c2n[nH]c3ncccc23)c1Cl [Compound 58] | > 1.25 | < 2.8 | < 0.5
FC(F)(F)c1ccc(N2CC3CCC(C2)N3)nc1-c1n[nH]c2ncccc12 [Compound 120] | > 1.25 | < 2.8 | < 0.5
NC1CCN(c2ccc(Cl)c(-c3n[nH]c4ncccc34)n2)CC1 [Compound 110] | > 1.25 | < 2.8 | < 0.5
Fc1cccc(C2CN(c3ccc(C(F)(F)F)c(-c4n[nH]c5ncccc45)n3)CCN2)c1 (stereo not drawn) [Compound 115] | < 2.8 | < 2.8 | < 0.05
CC(C)C[C@H]1CN(c2cc(C(F)(F)F)cc(-c3n[nH]c4ncccc34)n2)CCN1 [Compound 57] | > 1.25 | > 2 | < 0.5
CN1CCCN(c2cccc(-c3n[nH]c4ncccc34)n2)CC1 [Compound 34] | < 0.5 | > 2 | < 0.5
CC(C)C[C@H]1CN(c2ccc(C(F)(F)F)c(-c3n[nH]c4ncccc34)n2)CC[C@@H]1O [Compound 90] | > 1.25 | > 2 | > 0.7
CCOC[C@H]1CN(c2cccc(-c3n[nH]c4ncccc34)n2)CCN1 [Compound 147] | > 1.25 | > 1.25 | < 0.5
CC(C)(C)C(N)C1CCCN(c2ccc(F)c(-c3n[nH]c4ncccc34)n2)C1 (stereo not drawn) [Compound 330] | < 0.5 | < 0.01 | < 0.001
CC(C)C[C@H]1CN(c2ccc(Cl)c(-c3n[nH]c4ncccc34)n2)CCN1 [Compound 47] | < 2.8 | < 0.5 | < 0.05
N[C@@H]1CCN(c2cccc(-c3n[nH]c4ncccc34)n2)C1 [Compound 33] | > 1.25 | < 2.8 | < 0.5
CC1(C)CN(c2cccc(-c3n[nH]c4ncccc34)n2)CCN1 [Compound 79] | > 1.25 | < 0.5 | < 0.05
CC[C@H]1CN(c2ccc(C(F)(F)F)c(-c3n[nH]c4ncccc34)n2)CCN1 [Compound 75] | > 1.25 | < 2.8 | < 0.5
CCC[C@H]1CN(c2cccc(-c3n[nH]c4ncccc34)n2)C[C@H](CC(C)C)N1 [Compound 14] | > 1.25 | < 2.8 | < 0.5
Cc1cccc(C2CN(c3cccc(-c4n[nH]c5ncccc45)n3)CCN2)c1 (stereo not drawn) [Compound 16] | < 2.8 | > 2 | < 0.5
COC(C)(C)CC1CN(c2ccc(C(F)(F)F)c(-c3n[nH]c4ncccc34)n2)CCN1 (stereo not drawn) [Compound 100] | > 1.25 | > 1.25 | < 0.5
CC(C)(C)[C@H]1CN(c2ccc(C(F)(F)F)c(-c3n[nH]c4ncccc34)n2)CCN1 [Compound 77] | > 1.25 | > 2 | < 0.5
Cc1cc(C)c(CC2CN(c3cccc(-c4n[nH]c5ncccc45)n3)CCN2)c(C)c1 (stereo not drawn) [Compound 69] | > 1.25 | > 2 | > 0.7
CC(C)(O)[C@H]1CN(c2cccc(-c3n[nH]c4ncccc34)n2)CCN1 [Compound 136] | > 1.25 | < 0.5 | < 0.05
CC(C)C[C@H]1CN(c2ccc(Cl)c(-c3n[nH]c4ncccc34)n2)CC[C@H]1N [Compound 149] | < 0.5 | < 0.5 | < 0.05
FC(F)(F)c1ccc(N2CCNC(C(F)(F)F)C2)nc1-c1n[nH]c2ncccc12 (stereo not drawn) [Compound 65] | > 1.25 | > 2 | < 0.5
C[C@@H]1CN(c2ccc(C(F)(F)F)c(-c3n[nH]c4ncccc34)n2)CCN1 [Compound 117] | > 1.25 | > 1.25 | < 0.5
CC(F)(F)CC1CN(c2ccc(C(F)(F)F)c(-c3n[nH]c4ncccc34)n2)CCN1 (stereo not drawn) [Compound 119] | > 1.25 | > 1.25 | < 0.5

The next lines start with the values.

Ki (PKC alpha kinase) [µM] | Ki (PKC delta kinase) [µM] | Ki (PKC theta kinase) [µM] | Structure (SMILES)
> 1.25 | < 0.5 | < 0.05 | NC1CCN(c2cc(CO)cc(-c3n[nH]c4ncccc34)n2)CC1 [Compound 441]
> 1.25 | < 0.5 | < 0.05 | CCC1(CN)CN(c2ccc(C(F)(F)F)c(-c3n[nH]c4ncccc34)n2)CCO1 (stereo not drawn) [Compound 403]
> 1.25 | > 1.25 | < 0.5 | CCC1CN(c2ccc(C(F)(F)F)c(-c3n[nH]c4ncccc34)n2)CCC1C#N (stereo not drawn) [Compound 406]
> 1.25 | > 1.25 | < 0.5 | CC1CN(c2ccc(F)c(-c3n[nH]c4ncccc34)n2)CC(C2(O)CCC2)N1 (stereo not drawn) [Compound 256]
< 2.8 | < 0.5 | < 0.05 | CC(C)C[C@H]1CN(c2ccc(F)c(-c3n[nH]c4ncccc34)n2)C[C@@H](C)N1 [Compound 183]
< 2.8 | < 0.5 | < 0.05 | CCC(C)(C)C(N)C1CCCN(c2ccc(F)c(-c3n[nH]c4ncccc34)n2)C1 (stereo not drawn) [Compound 378]
> 1.25 | > 1.25 | < 0.5 | CC(C)CC1CN(c2ccc(C(F)(F)F)c(-c3n[nH]c4ncccc34)n2)CCC1C#N (stereo not drawn) [Compound 337]
> 1.25 | > 1.25 | > 0.7 | NC(=O)C1(N2CCCCC2)CCN(c2ccc(C(F)(F)F)c(-c3n[nH]c4ncccc34)n2)CC1 [Compound 259]
> 1.25 | < 0.5 | < 0.05 | OC1(C2CN(c3ccc(F)c(-c4n[nH]c5ncccc45)n3)CCN2)CCC1 (stereo not drawn) [Compound 240]
> 1.25 | > 1.25 | < 0.5 | Fc1ccc(C2CN(c3ccc(C(F)(F)F)c(-c4n[nH]c5ncccc45)n3)CCN2)cc1 (stereo not drawn) [Compound 171]
> 1.25 | > 1.25 | < 0.5 | CC(C)CC1CN(c2ccc(C(F)(F)F)c(-c3n[nH]c4ncccc34)n2)CCC1CCN (stereo not drawn) [Compound 469]
> 1.25 | > 1.25 | > 0.7 | CC(C)CC1(C#N)CN(c2ccc(C(F)(F)F)c(-c3n[nH]c4ncccc34)n2)C1 [Compound 429]
> 1.25 | > 1.25 | < 0.5 | CC(C)C(N)C1CN(c2ccc(C(F)(F)F)c(-c3n[nH]c4ncccc34)n2)CCO1 (stereo not drawn) [Compound 348]
> 1.25 | > 1.25 | < 0.5 | CCC(C)(C)C(N)C1CCCN(c2ccc(F)c(-c3n[nH]c4ncccc34)n2)C1 (stereo not drawn) [Compound 379]
> 1.25 | > 1.25 | < 0.5 | NCC1CCN(c2ccc(F)c(-c3n[nH]c4ncccc34)n2)C1 (stereo not drawn) [Compound 289]
> 1.25 | < 0.5 | < 0.05 | CC(O)C1CN(c2cccc(-c3n[nH]c4ncccc34)n2)CCN1 (stereo not drawn) [Compound 164]
> 1.25 | > 1.25 | > 0.7 | O=C1CN(c2ccc(F)c(-c3n[nH]c4ncccc34)n2)CCN1 [Compound 255]
< 2.8 | < 0.05 | < 0.05 | OC1(C2CN(c3cccc(-c4n[nH]c5ncccc45)n3)CCN2)CC1 (stereo not drawn) [Compound 186]
> 1.25 | > 1.25 | < 0.5 | NC(c1ccccc1)C1CCCN(c2ccc(F)c(-c3n[nH]c4ncccc34)n2)C1 (stereo not drawn) [Compound 301]
> 1.25 | > 1.25 | < 0.5 | FC(F)(F)c1ccnc2[nH]nc(-c3cccc(N4CCNCC4)n3)c12 [Compound 191]
> 1.25 | > 1.25 | > 0.7 | CC(C)(N)C1CCN(c2ccc(C(F)(F)F)c(-c3n[nH]c4ncccc34)n2)C1 (stereo not drawn) [Compound 361]
> 1.25 | > 1.25 | < 0.5 | NC[C@H]1CCN(c2ccc(F)c(-c3n[nH]c4ncccc34)n2)C1 [Compound 362]
> 1.25 | > 1.25 | > 0.7 | CC(C)CC1(CN)CN(c2ccc(F)c(-c3n[nH]c4ncccc34)n2)C1 [Compound 457]
> 1.25 | > 1.25 | > 0.7 | NC(=O)C1CN(c2ccc(C(F)(F)F)c(-c3n[nH]c4ncccc34)n2)CCN1 (stereo not drawn) [Compound 213]
< 0.5 | < 0.05 | < 0.05 | CC(C)CC1(CO)CN(c2ccc(C(F)(F)F)c(-c3n[nH]c4ncccc34)n2)CCC1N (stereo not drawn) [Compound 410]
< 2.8 | < 0.5 | < 0.5 | c1cc(-c2n[nH]c3ncccc23)nc(C2CCNCC2)c1 [Compound 159]
< 2.8 | < 0.5 | < 0.05 | Fc1ccc(N2CCNC(C3CC3)C2)nc1-c1n[nH]c2ncccc12 (stereo not drawn) [Compound 220]
> 1.25 | > 1.25 | < 0.5 | CC1CN(c2ccc(F)c(-c3n[nH]c4ncccc34)n2)CC1CN (stereo not drawn) [Compound 313]
< 0.5 | < 0.05 | < 0.05 | CC(C)C[C@@H]1CN(c2cccc(-c3n[nH]c4ncccc34)n2)CC[C@@H]1N [Compound 169]
> 1.25 | < 2.8 | < 0.5 | NCC1CN(c2ccc(F)c(-c3n[nH]c4ncccc34)n2)CCC1O (stereo not drawn) [Compound 296]
